Experiments:
[1] = test system: antigen-induced airway hyperreactivity; assay: Antigen-induced airway hyperactivity assay in ovalbumin-sensitized guinea pigs; format: in vivo, guinea pig; conditions: for Increase in Airway Resistance (Area Under Curve) / Dynamic Lung Compliance (Area Under Curve): 24 hours prior to antigen challenge, histamine challenge i.v.; for Increase in Airway Resistance (Area Under Curve): Saline 3490, OVA (no treatment) 12586; for Dynamic Lung Compliance (Area Under Curve): Saline −799, OVA (no treatment) −1386
Experimental: Antigen sensitization and challenge: Male Hartley guinea pigs (225-250 g) were sensitized with ovalbumin (0.5 ml of 1% solution, i.p. and s.c.) on day 1 (Aug. 25, 2008). On day 4 (Aug. 28, 2008), animals received a booster injection (i.p.) of 0.5 ml of 1% ovalbumin. On day 21 (Sep. 16, 2008), animals were orally dosed (2 ml/kg) with either vehicle (0.5% methylcellulose/0.2% Tween 80) or compound(s) 24 hours prior to antigen challenge. Thirty minutes before antigen challenge the animals were also injected with mepyramine (10 mg/kg, i.p.) to prevent anaphylactic collapse. Animals were then exposed for 20 min to an aerosol of 1% ovalbumin using a DeVilbiss Ultraneb nebulizer. Negative control animals were not challenged. Sensitizing solution: One gram (1 g) of albumin from chicken egg white (Sigma A55031G; lot#087K7004) was added to 100 ml of saline and allowed to go into solution.
Airway resistance measurement: Eighteen to twenty four hours after challenge, animals were anesthetized, (0.5 ml dose (i.m.) of cocktail containing ketamine (62 mg/kg), xylazine (30 mg/kg) and Promace (1.5 mg/kg)), surgically prepared and then placed in a whole body plethysmograph. Animals were connected to Ugo-Basile ventilators delivering a tidal volume of 1 ml/100 g at a rate of 50 breaths/minute via a tracheal cannula. The jugular vein is also cannulated for histamine challenge. A-water filled esophageal cannula was placed such that transpulmonary pressure could be recorded. Transpulmonary pressure was measured as the difference between the tracheal and esophageal cannulas using a differential pressure transducer. The volume, airflow, and transpulmonary pressure signals are monitored using a pulmonary analysis system (Buxco XA software) and used to calculate pulmonary resistance (cmH2O/ml/s) and dynamic compliance (ml/cmH20). Airway resistance and dynamic compliance are computed on a breath-by-breath basis. Histamine is administered intravenously and reactivity to increasing concentrations (1-20 μg/kg) assessed.

[2] = Suspension of benzoate salt in water, solid form checked by XRPD and thermal analysis; format: physicochemical; conditions: 50 mg/mL free base equivalent in nanopure water, total 29 hours as suspension, then air dried
Experimental: Sample Preparation: Material was prepared as in the reference example 3 above. A suspension of the benzoate salt was prepared as 50 mg/mL free base equivalent in nanopure water, which was 63.6 mg salt in 1 mL water. Sample was stirred at 500 rpm overnight and allowed to stand for 4 hours before it was centrifuged (total 29 hours as suspension). It was centrifuged at 13000 rpm for 8 minutes and the collected solid was analyzed by XRPD (x-ray power diffraction) as wet sample and evaluated by microscope. The wet solid was then air dried at ambient room temperature overnight to be analyzed as the dry sample by XRPD and thermal analysis. The as is drug substance is compared as the initial material. The XRPD of free base drug substance was also used as the comparison. The benzoate appeared to be a variable hydrate, with the XRPD displaying the same peaks for different amounts of water.
• XRPD Method • Siemens Model D5000 with Cu anticathode • Program: 1.0 Sec. dql • Range: 2° to 40°. […]

[3] = molecular target: T1, recombinant human β tryptase (Homo sapiens, UniProt Q15661); assay: β-Tryptase inhibitory potency, in vitro enzyme assay (IC50 and Ki determination); format: biochemical; conditions: 0.5 mM substrate S2366 (2×Km), room temperature, pH 8.2; Ki=IC50/(1+[Substrate]/Km)
T1 construct: made in house; host or cells: yeast cells
Experimental: Tryptase inhibition activity is confirmed using either isolated human lung tryptase or recombinant human β tryptase expressed in yeast cells. Essentially equivalent results are obtained using isolated native enzyme or the expressed enzyme. The assay procedure employs a 96 well microplate (Costar 3590) using L-pyroglutamyl-L-prolyl-L-arginine-para-nitroanilide (S2366: Quadratech) as substrate (essentially as described by McEuen et. al. Biochem Pharm, 1996, 52, pages 331-340). Assays are performed at room temperature using 0.5 mM substrate (2×Km) in 50 mM Tris (pH 8.2), 100 mM NaCl, 0.05% Tween 20, 50 μg/mL heparin, and the microplate is read on a microplate reader (Beckman Biomek Plate reader) at 405 nm wavelength.
The protocol is essentially the same as above except that the compound is added in duplicates at the following final concentrations: 0.01, 0.03, 0.1, 0.3, 1, 3, 10 μM (All dilutions carried out manually). For every assay, whether single point or IC50 determination, a standard compound is used to derive IC50 for comparison. From the IC50 value, the Ki can be calculated using the following formula: Ki=IC50/(1+[Substrate]/Km).

T1 sequence (Q15661 31-275): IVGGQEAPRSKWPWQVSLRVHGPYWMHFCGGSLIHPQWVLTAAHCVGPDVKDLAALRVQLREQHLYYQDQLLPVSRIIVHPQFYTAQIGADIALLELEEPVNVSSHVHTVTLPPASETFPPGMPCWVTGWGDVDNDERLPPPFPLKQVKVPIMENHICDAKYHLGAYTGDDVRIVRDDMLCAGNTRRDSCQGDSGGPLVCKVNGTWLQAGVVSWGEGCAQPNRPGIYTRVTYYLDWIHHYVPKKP

## COCCn1cc(C(=O)N2CCC(c3cc(CN)ccc3F)CC2)c2c(OC(F)(F)F)ccc(F)c21.COCCn1cc(C(=O)N2CCC(c3cc(CN)ccc3F)CC2)c2c(OC(F)(F)F)ccc(F)c21.O.O.O=C(O)/C=C/C(=O)O.O=C(O)/C=C/C(=O)O.O=C(O)/C=C/C(=O)O [Fumarate Salt, [4-(5-Aminomethyl-2-fluorophenyl)piperidine-1-yl][7-fluoro-1-(2-methoxyethyl)-4-trifluoromethoxy-1H-indol-3-yl]methanone Sesquifumarate Monohydrate]
[1]; 0.01 mg/kg oral
  Increase in Airway Resistance (Area Under Curve): 9647 +/− 818
  Dynamic Lung Compliance (Area Under Curve): −1218 +/− 47
[1]; 0.03 mg/kg oral
  Increase in Airway Resistance (Area Under Curve): 8103 +/− 745
  Dynamic Lung Compliance (Area Under Curve): −1156 +/− 40
[1]; 0.1 mg/kg oral
  Increase in Airway Resistance (Area Under Curve): 6623 +/− 511
  Dynamic Lung Compliance (Area Under Curve): −1004 +/− 43
[1]; dosed 24 hours prior to allergen challenge, guinea pig, oral
  Inhibition of antigen-induced airway hyperreactivity (in words): dose-related inhibition of antigen-induced airway hyperreactivity

## COCCn1cc(C(=O)N2CCC(c3cc(CN)ccc3F)CC2)c2c(OC(F)(F)F)ccc(F)c21.O=C(O)c1ccccc1 [benzoate salt, [4-(5-Aminomethyl-2-fluorophenyl)piperidine-1-yl][7-fluoro-1-(2-methoxyethyl)-4-trifluoromethoxy-1H-indol-3-yl]methanone Benzoate]
[2]
  Solid form stability in aqueous suspension (XRPD and thermal analysis): no free base or conversions to hydrate form were noted

## COCCn1cc(C(=O)N2CCC(c3cc(CN)ccc3F)CC2)c2c(OC(F)(F)F)ccc(F)c21 [compound of formula I, [4-(5-aminomethyl-2-fluoro-phenyl)-piperidin-1-yl]-[7-fluoro-1-(2-methoxy-ethyl)-4-trifluoromethoxy-1H-indol-3-yl]-methanone]
[3]
  Ki: 26 ± 5 nM

Source: US8217178B2, “[4-(5-aminomethyl-2-fluoro-phenyl)-piperidin-1-yl]-[7-flouro-1-(2-methoxy-ethyl)-4-trifluorom as an inhibitor of mast cell tryptase” (Sanofi, priority 2008, dated 2012)
